The target of assay [1] is T1, hCB1R (Homo sapiens, UniProt P21554). Nature of the assay: Binding to the CB1 receptor ([3H]-SR141716A displacement). How it is done: Binding to the CB1 Receptor:
Test compounds: The compounds (3 μl, 10 mM, 100% DMSO), pipetted into 96-well PP microtiter plates, were diluted with 27 μl of 100% DMSO (dimethyl sulfoxide). Proceeding from this solution, further 3-fold dilution steps were undertaken by transferring 10 μl in each case to a new PP microtiter plate and adding a further 20 μl of 100% DMSO. In each case 6 μl of these solutions were transferred into new 96-well PP microtiter plates and made up with 144 μl of assay buffer. The end concentrations ranged from 10 μM to 0.005 μM. Negative control: AM 251, dissolved in assay buffer with 1% DMSO, was added to the dilution series in the microtiter plates as a control. The end concentration was 1 μM. Blank control: assay buffer with 1% DMSO was added to the dilution series of the microtiter plates as a blank control.
Summary of the Assay Parameters:
High control: ^3H binding without addition of the compound
Low control: ^3H binding in the presence of 1 μM AM 251
The values were calculated using the corrected raw data.
The values reported were obtained as average values of a double determination. The IC50 values were calculated from the measurements with the program Xlfit, formula 205. Ki values were obtained from the IC50 and Kd values utilizing the Cheng-Prusoff equation: […]
Literature: Cheng, Y.-C., and Prusoff, W. H. (1973) Biochem. Pharmacol 22, 3099-3108

For assay [2], the target named is T1, hCB1R. Nature of the assay: In vitro functional assay (FLIPR, intracellular Ca2+) with recombinant HEK293 cells, CB1. The following applies: recombinant HEK293 cells expressing CB1 and Galpha16; 20 min preincubation, then reference agonist; Ca2+ change; read-out: hCB1R: FLIPR; IC50. Also on record: expressed in transfected cells; host or cells: HEK293. The assay is classed as cell-based. An excerpt: In Vitro Functional Assays with Recombinant Cells:

The mark [3] stands for this setting: CHO-K1/cannabinoid CB1 protein 2 μg/well, [3H]-SR141716A 0.5 nM, Ki from IC50 by Cheng-Prusoff, average of double determination, read-out: hCB1R, binding Ki.

Read-outs that look alike come from different tables or passages of the source.

T1 sequence (P21554 whole entry): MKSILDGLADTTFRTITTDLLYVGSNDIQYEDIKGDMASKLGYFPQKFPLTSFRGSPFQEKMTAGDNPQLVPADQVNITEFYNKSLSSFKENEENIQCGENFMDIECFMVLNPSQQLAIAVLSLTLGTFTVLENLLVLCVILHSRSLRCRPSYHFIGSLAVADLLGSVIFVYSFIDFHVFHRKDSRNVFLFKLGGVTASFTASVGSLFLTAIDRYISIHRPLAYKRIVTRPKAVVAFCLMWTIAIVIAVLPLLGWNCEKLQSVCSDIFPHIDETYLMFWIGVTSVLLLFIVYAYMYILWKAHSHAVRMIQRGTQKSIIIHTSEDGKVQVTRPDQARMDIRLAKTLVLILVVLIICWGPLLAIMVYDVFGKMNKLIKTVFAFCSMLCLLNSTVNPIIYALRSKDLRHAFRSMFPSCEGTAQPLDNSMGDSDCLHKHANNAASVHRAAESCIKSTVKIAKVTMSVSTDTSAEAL

`CC1(C)C(=O)N(c2ccc(C#N)c(C(F)(F)F)c2)C(=O)N1Cc1ccc(C(F)(F)F)cc1Nc1ccc(F)cc1` [Example 55, 4-{3-[2-(4-Fluorophenylamino)-4-trifluoromethylbenzyl]-4,4-dimethyl-2,5-dioxoimidazolidin-1-yl}-2-trifluoromethylbenzonitrile] yielded a Ki on hCB1R [1] of 8 nM. Further, the IC50 on hCB1R [2] worked out at 10 nM.
Taken in the same sequence, the figures for `CC1(C)C(=O)N(c2ccc(C#N)c(C(F)(F)F)c2)C(=O)N1Cc1ccccc1Nc1ccc(S(N)(=O)=O)cc1` [Example 68, 5,5-4-{2-[3-(4-Cyano-3-trifluoromethylphenyl)-5,5-dimethyl-2,4-dioxoimidazolidin-1-ylmethyl]phenylamino}benzene sulfonamide] were 16 nM and 44 nM.
For `CC1(C)C(=O)N(c2ccc(C#N)c(C(F)(F)F)c2)C(=O)N1Cc1ccccc1Nc1ccc(C(=O)NCCO)cc1` [Example 149, 4-{2-[3-(4-cyano-3-trifluoromethylphenyl)-5,5-dimethyl-2,4-dioxoimidazolidin-1-ylmethyl]phenylamino}-N-(2-hydroxyethyl)benzamide], the Ki at hCB1R [1] was 6 nM.
For the compound `CCNS(=O)(=O)c1ccc(Nc2ccccc2CN2C(=O)N(c3ccc(C#N)c(C(F)(F)F)c3)C(=O)C2(C)C)cc1` [Example 151, 4-{2-[3-(4-cyano-3-trifluoromethylphenyl)-5,5-dimethyl-2,4-dioxoimidazolidin-1-ylmethyl]phenylamino}-N-ethylbenzenesulfonamide], the Ki on hCB1R [1] (setting [3]) was determined as 155 nM.
At hCB1R [1], `CC1(C)C(=O)N(c2ccc(C#N)c(C(F)(F)F)c2)C(=O)N1Cc1ccccc1Nc1cccc(S(N)(=O)=O)c1` [Example 153, 3-{2-[3-(4-Cyano-3-trifluoromethylphenyl)-5,5-dimethyl-2,4-dioxoimidazolidin-1-ylmethyl]phenylamino}benzenesulfonamide] gave a Ki of 20 nM.
Regarding `COC(=O)c1ccc(Nc2cc(F)ccc2CN2C(=O)N(c3ccc(C#N)c(C(C)(C)C)c3)C(=O)C2(C)C)cc1` [Example 157, methyl 4-{2-[3-(3-tert-butyl-4-cyanophenyl)-5,5-dimethyl-2,4-dioxoimidazolidin-1-ylmethyl]-5-fluorophenylamino}benzoate], on hCB1R [1], the Ki was found to be 5 nM.
The compound `COC(=O)c1ccc(Nc2cc(F)ccc2CN2C(=O)N(c3ccc(C#N)c(C)c3)C(=O)C2(C)C)cc1` [Example 160, Methyl 4-{2-[3-(4-cyano-3-methylphenyl)-5,5-dimethyl-2,4-dioxoimidazolidin-1-ylmethyl]-5-fluorophenylamino}benzoate] had a Ki on hCB1R [1] of 3 nM.
The same measure, in the same setting: in the case of `CC1(C)C(=O)N(c2ccc(C#N)c(C(F)(F)F)c2)C(=O)N1Cc1ccccc1Nc1ccc(C(=O)NCC(N)=O)cc1` [Example 161, N-carbamoylmethyl-4-{2-[3-(4-cyano-3-trifluoromethylphenyl)-5,5-dimethyl-2,4-dioxoimidazolidin-1-ylmethyl]phenylamino}benzamide] it was 8 nM.
Regarding `CCOC(=O)c1ccc(Nc2cc(C(F)(F)F)ccc2CN2C(=O)N(c3ccc(C#N)c(C(F)(F)F)c3)C(=O)C2(C)C)cc1` [Example 165, ethyl 4-{2-[3-(4-cyano-3-trifluoromethylphenyl)-5,5-dimethyl-2,4-dioxoimidazolidin-1-ylmethyl]-5-trifluoromethylphenylamino}benzoate], at hCB1R [1], the Ki came to 16 nM.
Consider `COC(=O)c1ccc(Nc2cc(F)ccc2CN2C(=O)N(c3ccnc(C(C)(C)C)c3)C(=O)C2(C)C)cc1` [Example 167, Methyl 4-{2-[3-(2-tert-butylpyridin-4-yl)-5,5-dimethyl-2,4-dioxoimidazolidin-1-ylmethyl]-5-fluorophenylamino}benzoate], for which the Ki on hCB1R [1] (setting [3]) was found to be 7 nM.
In the case of `CC1(C)C(=O)N(c2ccc(F)c(C(F)(F)F)c2)C(=O)N1Cc1ccc(F)cc1Nc1ccc(C(=O)NC[C@H](O)[C@@H](O)[C@H](O)[C@H](O)CO)cc1` [Example 170, 4-{5-Fluoro-2-[3-(4-fluoro-3-trifluoromethylphenyl)-5,5-dimethyl-2,4-dioxoimidazolidin-1-ylmethyl]phenylamino}-N-((2S,3R,4R,5R)-2,3,4,5,6-pentahydroxyhexyl)benzamide], the Ki on hCB1R [1] (setting [3]) was 113 nM.
Take `CC1(C)C(=O)N(c2ccc(F)c(C(F)(F)F)c2)C(=O)N1Cc1ccc(F)cc1Nc1ccc(C(=O)N2CCC(O)CC2)cc1` [Example 171, 1-{4-Fluoro-2-[4-(4-hydroxypiperidine-1-carbonyl)phenylamino]benzyl}-3-(4-fluoro-3-trifluoromethylphenyl)-5,5-dimethylimidazolidine-2,4-dione]: on hCB1R [1] (setting [3]), the Ki is 120 nM.
As for `CC1(C)C(=O)N(c2ccc(F)c(C(F)(F)F)c2)C(=O)N1Cc1ccc(F)cc1Nc1ccc(C(=O)N2CCNCC2)cc1` [Example 172, 1-{4-Fluoro-2-[4-(piperazine-1-carbonyl)phenylamino]benzyl}-3-(4-fluoro-3-trifluoromethylphenyl)-5,5-dimethylimidazolidine-2,4-dione], at hCB1R [1] (setting [3]), the Ki was 8 nM.
Compound `CC1(C)C(=O)N(c2ccc(C#N)c(C(F)(F)F)c2)C(=O)N1Cc1ccccc1Nc1ccc(C(=O)NCCCS(C)(=O)=O)cc1` [Example 173, 4-{2-[3-(4-Cyano-3-trifluoromethylphenyl)-5,5-dimethyl-2,4-dioxoimidazolidin-1-ylmethyl]phenylamino}-N-(3-methanesulfonylpropyl)benzamide] had a Ki at hCB1R [1] of 34 nM.
Consider `CC1(C)C(=O)N(c2ccc(C#N)c(C(F)(F)F)c2)C(=O)N1Cc1ccccc1Nc1ccc(C(=O)NN2CCCCC2)cc1` [Example 174, 4-{2-[3-(4-Cyano-3-trifluoromethylphenyl)-5,5-dimethyl-2,4-dioxoimidazolidin-1-ylmethyl]phenylamino}-N-piperidin-1-ylbenzamide], for which the Ki at hCB1R [1] (setting [3]) amounted to 144 nM.
`CC1(C)C(=O)N(c2ccc(C#N)c(C(F)(F)F)c2)C(=O)N1Cc1ccccc1Nc1ccc(N(S(C)(=O)=O)S(C)(=O)=O)cc1` [Example 176]: the Ki at hCB1R [1] (setting [3]) was determined as 130 nM.
The compound `COc1ccc(Nc2ccccc2CN2C(=O)N(c3ccc(C#N)c(C(F)(F)F)c3)C(=O)C2(C)C)nn1` [Example 179, 4-{3-[2-(6-methoxypyridazin-3-ylamino)benzyl]-4,4-dimethyl-2,5-dioxoimidazolidin-1-yl}-2-trifluoromethylbenzonitrile] registered a Ki on hCB1R [1] of 16 nM.
Regarding `COC(=O)c1ccc(Nc2cc(F)ccc2CN2C(=O)N(c3ccc(C#N)c(-c4ccccc4)c3)C(=O)C2(C)C)cc1` [Example 223], the Ki at hCB1R [1] (setting [3]) amounted to 4 nM.
Still for that read-out and setting: in the case of `COC(=O)c1ccc(Nc2cc(F)ccc2CN2C(=O)N(c3ccc(C#N)c(-c4ccc(Cl)cc4)c3)C(=O)C2(C)C)cc1` [Example 224, methyl 4-{2-[3-(4′-chloro-6-cyanobiphenyl-3-yl)-5,5-dimethyl-2,4-dioxoimidazolidin-1-ylmethyl]-5-fluorophenylamino}benzoate] it was 6 nM.
In the case of `CC1(C)C(=O)N(c2ccc(C#N)c(-c3ccccc3)c2)C(=O)N1Cc1ccc(F)cc1Nc1ccc(C(=O)O)cc1` [Example 227, 4-{2-[3-(6-cyanobiphenyl-3-yl)-5,5-dimethyl-2,4-dioxoimidazolidin-1-ylmethyl]-5-fluorophenylamino}benzoic acid], the Ki on hCB1R [1] (setting [3]) came to 36 nM. On hCB1R [2], the IC50 is 16 nM.

For the origin of these results see US7759366B2 (Sanofi-Aventis, priority 2006, dated 2010).
